From ChEMBL document CHEMBL4219183, “Novel purine benzimidazoles as antimicrobial agents by regulating ROS generation and targeting clinically resistant Staphylococcus aureus DNA groove” (Bioorg Med Chem Lett, 2018)
Values after ≈ are worked out from the molar mass of the structure shown.

Key:
Format in all cases: functional
[1] = system: Candida albicans; assay: Antifungal activity against Candida albicans after 24 hrs by two fold serial dilution method
[2] = system: Candida parapsilosis; assay: Antifungal activity against Candida parapsilosis ATCC 22019 after 24 hrs by two fold serial dilution method; conditions: ATCC 22019, 24 h
[3] = system: Staphylococcus aureus; assay: Antibacterial activity against Staphylococcus aureus ATCC 29213 after 24 hrs by two fold serial dilution method; conditions: ATCC 29213, 24 h
[4] = system: Candida tropicalis; assay: Antifungal activity against Candida tropicalis after 24 hrs by two fold serial dilution method
[5] = system: Acinetobacter baumannii; assay: Antibacterial activity against Acinetobacter baumannii after 24 hrs by two fold serial dilution method
[6] = system: Staphylococcus aureus; assay: Antibacterial activity against methicillin-resistant Staphylococcus aureus N315 after 24 hrs by two fold serial dilution method; conditions: N315, 24 h
[7] = system: Aspergillus fumigatus; assay: Antifungal activity against Aspergillus fumigatus after 24 hrs by two fold serial dilution method
[8] = system: Escherichia coli; assay: Antibacterial activity against Escherichia coli ATCC 25922 after 24 hrs by two fold serial dilution method; conditions: ATCC 25922, 24 h
[9] = system: Enterococcus faecalis; assay: Antibacterial activity against Enterococcus faecalis after 24 hrs by two fold serial dilution method
[10] = system: Escherichia coli; assay: Antibacterial activity against Escherichia coli after 24 hrs by two fold serial dilution method
[11] = system: Klebsiella pneumoniae; assay: Antibacterial activity against Klebsiella pneumoniae after 24 hrs by two fold serial dilution method
[12] = system: Staphylococcus aureus; assay: Antibacterial activity against Staphylococcus aureus after 24 hrs by two fold serial dilution method
[13] = system: Staphylococcus aureus; assay: Antibacterial activity against Staphylococcus aureus ATCC 25923 after 24 hrs by two fold serial dilution method; conditions: ATCC 25923, 24 h
[14] = system: Pseudomonas aeruginosa; assay: Antibacterial activity against Pseudomonas aeruginosa after 24 hrs by two fold serial dilution method
[15] = system: Pseudomonas aeruginosa; assay: Antibacterial activity against Pseudomonas aeruginosa ATCC 27853 after 24 hrs by two fold serial dilution method; conditions: ATCC 27853, 24 h
[16] = system: Candida albicans; assay: Antifungal activity against Candida albicans ATCC 90023 after 24 hrs by two fold serial dilution method; conditions: ATCC 90023, 24 h

SMILES: C=CCn1c(Cn2cnc3c(N4CCOCC4)ncnc32)nc2ccccc21
- MIC80 [1]: 512 µg/mL (≈ 1360 µM)
- MIC80 [2]: 32 µg/mL (≈ 85.2 µM)
- MIC [3]: 128 µg/mL (≈ 341 µM)
- MIC80 [4]: 256 µg/mL (≈ 682 µM)
- MIC [5]: 128 µg/mL (≈ 341 µM)
- MIC [6]: 512 µg/mL (≈ 1360 µM)
- MIC80 [7]: 128 µg/mL (≈ 341 µM)
- MIC [8]: 256 µg/mL (≈ 682 µM)
- MIC [9]: 128 µg/mL (≈ 341 µM)
- MIC [10]: 256 µg/mL (≈ 682 µM)
- MIC [11]: 128 µg/mL (≈ 341 µM)
- MIC [12]: 256 µg/mL (≈ 682 µM)
- MIC [13]: 256 µg/mL (≈ 682 µM)
- MIC [14]: 256 µg/mL (≈ 682 µM)
- MIC [15]: 128 µg/mL (≈ 341 µM)
- MIC80 [16]: 128 µg/mL (≈ 341 µM)

SMILES: CCn1c(Cn2cnc3c(N4CCOCC4)ncnc32)nc2ccccc21
- MIC80 [1]: 256 µg/mL (≈ 704 µM)
- MIC80 [2]: 256 µg/mL (≈ 704 µM)
- MIC [3]: 256 µg/mL (≈ 704 µM)
- MIC80 [4]: 256 µg/mL (≈ 704 µM)
- MIC [5]: 256 µg/mL (≈ 704 µM)
- MIC [6]: 256 µg/mL (≈ 704 µM)
- MIC80 [7]: 256 µg/mL (≈ 704 µM)
- MIC [8]: 128 µg/mL (≈ 352 µM)
- MIC [9]: 128 µg/mL (≈ 352 µM)
- MIC [10]: 128 µg/mL (≈ 352 µM)
- MIC [11]: 256 µg/mL (≈ 704 µM)
- MIC [12]: 256 µg/mL (≈ 704 µM)
- MIC [13]: 256 µg/mL (≈ 704 µM)
- MIC [14]: 128 µg/mL (≈ 352 µM)
- MIC [15]: 256 µg/mL (≈ 704 µM)
- MIC80 [16]: 128 µg/mL (≈ 352 µM)

SMILES: CCCCCCn1c(Cn2cnc3c(N4CCCCC4)ncnc32)nc2ccccc21
- MIC80 [1]: 64 µg/mL (≈ 153 µM)
- MIC80 [2]: 64 µg/mL (≈ 153 µM)
- MIC [3]: 512 µg/mL (≈ 1230 µM)
- MIC80 [4]: 64 µg/mL (≈ 153 µM)
- MIC [5]: 64 µg/mL (≈ 153 µM)
- MIC [6]: 64 µg/mL (≈ 153 µM)
- MIC80 [7]: 128 µg/mL (≈ 307 µM)
- MIC [8]: 16 µg/mL (≈ 38.3 µM)
- MIC [9]: 128 µg/mL (≈ 307 µM)
- MIC [10]: 256 µg/mL (≈ 613 µM)
- MIC [11]: 64 µg/mL (≈ 153 µM)
- MIC [12]: 16 µg/mL (≈ 38.3 µM)
- MIC [13]: 64 µg/mL (≈ 153 µM)
- MIC [14]: 128 µg/mL (≈ 307 µM)
- MIC [15]: 128 µg/mL (≈ 307 µM)
- MIC80 [16]: 32 µg/mL (≈ 76.6 µM)

SMILES: c1nc(N2CCOCC2)c2nc[nH]c2n1
- MIC80 [1]: 256 µg/mL (≈ 1250 µM)
- MIC80 [2]: 512 µg/mL (≈ 2490 µM)
- MIC [3]: 512 µg/mL (≈ 2490 µM)
- MIC80 [4]: 256 µg/mL (≈ 1250 µM)
- MIC [5]: 256 µg/mL (≈ 1250 µM)
- MIC [6]: 512 µg/mL (≈ 2490 µM)
- MIC80 [7]: 256 µg/mL (≈ 1250 µM)
- MIC [8]: 256 µg/mL (≈ 1250 µM)
- MIC [9]: 128 µg/mL (≈ 624 µM)
- MIC [10]: 256 µg/mL (≈ 1250 µM)
- MIC [11]: 128 µg/mL (≈ 624 µM)
- MIC [12]: 256 µg/mL (≈ 1250 µM)
- MIC [13]: 512 µg/mL (≈ 2490 µM)
- MIC [14]: 256 µg/mL (≈ 1250 µM)
- MIC [15]: 256 µg/mL (≈ 1250 µM)
- MIC80 [16]: 256 µg/mL (≈ 1250 µM)

SMILES: c1nc2nc[nH]c(N3CCCC3)c-2n1
- MIC80 [1]: 128 µg/mL (≈ 676 µM)
- MIC80 [2]: 512 µg/mL (≈ 2710 µM)
- MIC [3]: 512 µg/mL (≈ 2710 µM)
- MIC80 [4]: 128 µg/mL (≈ 676 µM)
- MIC [5]: 256 µg/mL (≈ 1350 µM)
- MIC [6]: 512 µg/mL (≈ 2710 µM)
- MIC80 [7]: 64 µg/mL (≈ 338 µM)
- MIC [8]: 256 µg/mL (≈ 1350 µM)
- MIC [9]: 512 µg/mL (≈ 2710 µM)
- MIC [10]: 256 µg/mL (≈ 1350 µM)
- MIC [11]: 512 µg/mL (≈ 2710 µM)
- MIC [12]: 64 µg/mL (≈ 338 µM)
- MIC [13]: 512 µg/mL (≈ 2710 µM)
- MIC [14]: 256 µg/mL (≈ 1350 µM)
- MIC [15]: 128 µg/mL (≈ 676 µM)
- MIC80 [16]: 256 µg/mL (≈ 1350 µM)

SMILES: Cc1cc2ncn(CCn3cnc4c(N5CCOCC5)ncnc43)c2cc1C
- MIC80 [1]: 256 µg/mL (≈ 678 µM)
- MIC80 [2]: 256 µg/mL (≈ 678 µM)
- MIC [3]: 128 µg/mL (≈ 339 µM)
- MIC80 [4]: 128 µg/mL (≈ 339 µM)
- MIC [5]: 256 µg/mL (≈ 678 µM)
- MIC [6]: 256 µg/mL (≈ 678 µM)
- MIC80 [7]: 128 µg/mL (≈ 339 µM)
- MIC [8]: 256 µg/mL (≈ 678 µM)
- MIC [9]: 128 µg/mL (≈ 339 µM)
- MIC [10]: 256 µg/mL (≈ 678 µM)
- MIC [11]: 64 µg/mL (≈ 170 µM)
- MIC [12]: 256 µg/mL (≈ 678 µM)
- MIC [13]: 256 µg/mL (≈ 678 µM)
- MIC [14]: 32 µg/mL (≈ 84.8 µM)
- MIC [15]: 128 µg/mL (≈ 339 µM)
- MIC80 [16]: 128 µg/mL (≈ 339 µM)

SMILES: OC(Cn1cncn1)(Cn1cncn1)c1ccc(F)cc1F [FLUCONAZOLE]
- MIC80 [1]: 64 µg/mL (≈ 209 µM)
- MIC80 [2]: 2 µg/mL (≈ 6.53 µM)
- MIC80 [4]: 256 µg/mL (≈ 836 µM)
- MIC80 [7]: 256 µg/mL (≈ 836 µM)
- MIC80 [16]: 1 µg/mL (≈ 3.27 µM)

SMILES: CCn1cc(C(=O)O)c(=O)c2cc(F)c(N3CCNCC3)cc21 [NORFLOXACIN]
- MIC [3]: 8 µg/mL (≈ 25.1 µM)
- MIC [5]: 32 µg/mL (≈ 100 µM)
- MIC [6]: > 512 µg/mL
- MIC [8]: 1 µg/mL (≈ 3.13 µM)
- MIC [9]: 256 µg/mL (≈ 802 µM)
- MIC [10]: 512 µg/mL (≈ 1600 µM)
- MIC [11]: > 512 µg/mL
- MIC [12]: 64 µg/mL (≈ 200 µM)
- MIC [13]: 32 µg/mL (≈ 100 µM)
- MIC [14]: 4 µg/mL (≈ 12.5 µM)
- MIC [15]: 512 µg/mL (≈ 1600 µM)

SMILES: Clc1ccc(Cn2c(Cn3cnc4c(N5CCOCC5)ncnc43)nc3ccccc32)cc1
- MIC80 [1]: 256 µg/mL (≈ 557 µM)
- MIC80 [2]: 512 µg/mL (≈ 1110 µM)
- MIC [3]: 256 µg/mL (≈ 557 µM)
- MIC80 [4]: 64 µg/mL (≈ 139 µM)
- MIC [5]: 512 µg/mL (≈ 1110 µM)
- MIC [6]: 512 µg/mL (≈ 1110 µM)
- MIC80 [7]: 256 µg/mL (≈ 557 µM)
- MIC [8]: 256 µg/mL (≈ 557 µM)
- MIC [9]: 256 µg/mL (≈ 557 µM)
- MIC [10]: 256 µg/mL (≈ 557 µM)
- MIC [11]: 256 µg/mL (≈ 557 µM)
- MIC [12]: 512 µg/mL (≈ 1110 µM)
- MIC [13]: 128 µg/mL (≈ 278 µM)
- MIC [14]: 512 µg/mL (≈ 1110 µM)
- MIC [15]: 128 µg/mL (≈ 278 µM)
- MIC80 [16]: 128 µg/mL (≈ 278 µM)

SMILES: CCCCCCCCn1c(Cn2cnc3c(N4CCOCC4)ncnc32)nc2ccccc21
- MIC80 [1]: 256 µg/mL (≈ 572 µM)
- MIC80 [2]: 512 µg/mL (≈ 1140 µM)
- MIC [3]: 256 µg/mL (≈ 572 µM)
- MIC80 [4]: 256 µg/mL (≈ 572 µM)
- MIC [5]: 256 µg/mL (≈ 572 µM)
- MIC [6]: 512 µg/mL (≈ 1140 µM)
- MIC80 [7]: 512 µg/mL (≈ 1140 µM)
- MIC [8]: 256 µg/mL (≈ 572 µM)
- MIC [9]: 256 µg/mL (≈ 572 µM)
- MIC [10]: 256 µg/mL (≈ 572 µM)
- MIC [11]: 256 µg/mL (≈ 572 µM)
- MIC [12]: 512 µg/mL (≈ 1140 µM)
- MIC [13]: 512 µg/mL (≈ 1140 µM)
- MIC [14]: 256 µg/mL (≈ 572 µM)
- MIC [15]: 128 µg/mL (≈ 286 µM)
- MIC80 [16]: 64 µg/mL (≈ 143 µM)
